{
  "source": "patent US20240166646A1",
  "about": "“1H-PYRROLO[2,3-B]PYRIDINE DERIVATIVES AS BCL-2 INHIBITORS FOR THE TREATMENT OF NEOPLASTIC AND AUTOIMMUNE DISEASES” (Newave Pharmaceutical Inc., priority 2020, published 2024)",
  "key": {"[1]": {"tested_on": "BCL-2-dependent acute lymphoblastic leukemia (ALL) cell line RS4; 11 with G101V mutation", "assay": "In vitro anti-proliferation assay (ATPlite) in RS4; 11 with G101V mutation", "assay_type": "cell-based", "settings": "about 72 hours incubation, medium with 5% FBS or 10% normal human serum, ATPlite luminescence", "summary_of_the_method": "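About 1×10^4 cells per well exposed to a compound dose range for about 72 h in medium with 5% FBS or 10% normal human serum. ATP content read by ATPlite luminescence after lysis. IC50 derived from dose-response.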"}, "Mcl-1": {"target": "Mcl-1 (Homo sapiens (Human), UniProt Q07820)", "sequence (Q07820 whole entry)": "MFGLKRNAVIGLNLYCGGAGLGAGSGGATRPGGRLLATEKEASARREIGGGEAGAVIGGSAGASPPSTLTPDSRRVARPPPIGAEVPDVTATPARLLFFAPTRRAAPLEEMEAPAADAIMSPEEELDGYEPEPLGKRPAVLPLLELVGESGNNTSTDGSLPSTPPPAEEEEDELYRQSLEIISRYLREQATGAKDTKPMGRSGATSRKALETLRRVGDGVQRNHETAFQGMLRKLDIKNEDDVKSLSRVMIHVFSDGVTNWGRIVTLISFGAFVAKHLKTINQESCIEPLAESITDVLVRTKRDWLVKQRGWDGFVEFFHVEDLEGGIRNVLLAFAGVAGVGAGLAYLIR", "settings": "cited from earlier work"}, "RS4; 11 cells": {"tested_on": "RS4; 11 cells", "settings": "cited from earlier work"}, "CLL": {"tested_on": "CLL", "settings": "average; read-out: average EC50, apoptosis in CLL; cited from earlier work"}, "RS4; 11 xenografts": {"tested_on": "RS4; 11 xenografts", "settings": "single dose of 100 mg/kg; cited from earlier work"}, "DoHH2 xenograft": {"tested_on": "DoHH2 xenograft", "settings": "single agent or in combination with Bendamustine and other agents; cited from earlier work"}, "Granta-519 xenograft": {"tested_on": "Granta-519 xenograft", "settings": "single agent or in combination with Bendamustine and other agents; cited from earlier work"}, "[2]": {"tested_on": "CLL who have 17p deletion", "settings": "Human Phase I and II data; cited from earlier work"}, "Bcl-w": {"target": "Bcl-w (Homo sapiens (Human), UniProt Q92843)", "sequence (Q92843 whole entry)": "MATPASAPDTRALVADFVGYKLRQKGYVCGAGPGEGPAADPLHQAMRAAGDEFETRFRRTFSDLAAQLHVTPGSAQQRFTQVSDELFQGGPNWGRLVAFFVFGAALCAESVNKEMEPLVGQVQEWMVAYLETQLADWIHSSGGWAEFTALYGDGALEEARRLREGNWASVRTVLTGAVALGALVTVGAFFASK", "settings": "cited from earlier work"}, "SCLC H146 cell line": {"tested_on": "SCLC H146 cell line", "settings": "read-out: IC50 against SCLC H146 cell line; cited from earlier work"}, "H345 xenograft": {"tested_on": "H345 xenograft", "settings": "100 mg/kg/day, H345 xenograft model; cited from earlier work"}, "[3]": {"tested_on": "xenograft models of small-cell lung cancer and acute lymphoblastic leukemia", "settings": "oral administration, alone; cited from earlier work"}, "circulating platelets": {"tested_on": "circulating platelets", "settings": "clinical trial, patients; cited from earlier work"}, "[4]": {"settings": "in vivo; cited from earlier work"}, "[5]": {"settings": "cited from earlier work"}, "established tumors": {"tested_on": "established tumors", "settings": "mouse, in vivo; cited from earlier work"}, "Bcl-2": {"target": "Bcl-2 (Homo sapiens (Human), UniProt P10415)", "sequence (P10415 whole entry)": "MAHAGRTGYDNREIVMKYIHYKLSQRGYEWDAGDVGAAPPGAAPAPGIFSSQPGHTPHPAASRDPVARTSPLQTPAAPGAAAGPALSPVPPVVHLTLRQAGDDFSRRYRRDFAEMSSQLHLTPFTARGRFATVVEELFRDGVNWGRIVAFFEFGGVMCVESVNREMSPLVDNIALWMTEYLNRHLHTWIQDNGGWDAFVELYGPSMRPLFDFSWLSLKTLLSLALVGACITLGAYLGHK", "assay": "Bcl-2 competition binding (fluorescence polarization) assay", "settings": "fluorescein labeled BH3 peptide 15 nM, Bcl-2 protein 30 nM, 3 hours of incubation at room temperature", "summary_of_the_method": "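Fluorescence polarization competition of 15 nM labeled 23-mer BH3 peptide with 30 nM purified Bcl-2, in 20 mM Hepes pH 7.0, 50 mM KCl, 5 mM MgCl2, 20 mM Na2MoO4, 0.1 mg/ml bovine gamma globulin, 0.01% NP40. Compounds 20 μM to 2 nM final; mP read after 3 h at room temperature, background-subtracted. IC50 from sigmoidal dose-response fit.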"}},
  "note": "pEC50, pIC50, pKi: −log10 of the molar value. Structures can show the parent of a compound that is named as a salt.",
  "data": [
    {"smiles": "CC1(C)CCC(CN2CCN(c3ccc(C(=O)NS(=O)(=O)c4ccc(NCC5CCOCC5)c([N+](=O)[O-])c4)c(Oc4cnc5[nH]ccc5c4)c3)CC2)=C(c2ccc(Cl)cc2)C1", "note": "[ABT-199]", "values": [
      {"measurement": "pIC50", "setting": "[1]; RS4-11", "value": 5.92},
      {"measurement": "activity to Mcl-1", "setting": "Mcl-1", "value": "no activity"},
      {"measurement": "pEC50", "setting": "RS4; 11 cells", "value": 8.10},
      {"measurement": "apoptosis in RS4; 11 cells", "setting": "RS4; 11 cells; cytochrome c release, caspase activation, accumulation of sub-G0/G1 DNA", "value": "induces a rapid apoptosis"},
      {"measurement": "pEC50", "setting": "CLL", "value": 8.52},
      {"measurement": "maximal tumor growth inhibition", "setting": "RS4; 11 xenografts", "value": 95, "unit": "%"},
      {"measurement": "tumor growth delay", "setting": "RS4; 11 xenografts", "value": 152, "unit": "%"},
      {"measurement": "xenograft growth DoHH2", "setting": "DoHH2 xenograft", "value": "inhibits xenograft growth"},
      {"measurement": "xenograft growth Granta-519", "setting": "Granta-519 xenograft", "value": "inhibits xenograft growth"},
      {"measurement": "clinical efficacy", "setting": "[2]", "value": "highly efficacious"}
    ]},
    {"smiles": "CC1(C)CCC(c2ccc(Cl)cc2)=C(CN2CCN(c3ccc(C(=O)NS(=O)(=O)c4ccc(N[C@H](CCN5CCOCC5)CSc5ccccc5)c(S(=O)(=O)C(F)(F)F)c4)cc3)CC2)C1", "note": "[ABT-263]", "values": [
      {"measurement": "pKi", "setting": "Bcl-w", "value": 9.00},
      {"measurement": "pIC50", "setting": "SCLC H146 cell line", "value": 6.96},
      {"measurement": "TGI", "setting": "H345 xenograft", "value": 80, "unit": "%"},
      {"measurement": "treated tumors indicating at least a 50% reduction in tumor volume", "setting": "H345 xenograft", "value": 20, "unit": "%"},
      {"measurement": "tumor regression", "setting": "[3]", "value": "complete tumor regressions"},
      {"measurement": "effect on number of circulating platelets", "setting": "circulating platelets", "value": "rapid, concentration-dependent decrease in the number of circulating platelets"},
      {"measurement": "oral bioavailability", "setting": "[4]", "value": "orally bioavailable"}
    ]},
    {"smiles": "CN(C)CC[C@H](CSc1ccccc1)Nc1ccc(S(=O)(=O)NC(=O)c2ccc(N3CCN(Cc4ccccc4-c4ccc(Cl)cc4)CC3)cc2)cc1[N+](=O)[O-]", "note": "[ABT-737]", "values": [
      {"measurement": "oral bioavailability", "setting": "[4]", "value": "not orally bioavailable"},
      {"measurement": "aqueous solubility", "setting": "[5]", "value": "low aqueous solubility"},
      {"measurement": "efficacy in animal models", "setting": "established tumors", "value": "improves survival, causes regression of established tumors, and produces cures in a high percentage of the mice"}
    ]},
    {"smiles": "CC(C)Oc1ccccc1[C@@H]1CCCN1C1CC2(CCN(c3ccc(C(=O)NS(=O)(=O)c4ccc(NCC5CCOCC5)c([N+](=O)[O-])c4)c(N4c5cc6cc[nH]c6nc5O[C@H]5COCC[C@@H]54)c3)CC2)C1", "note": "[Example 67, 2-[(3R,8S)-2,5-dioxa-9,15,17-triazatetracyclo[8.7.0.0^{3,8}.0^{12,16}]heptadeca-1(10),11,13,16-tetraen-9-yl]-4-{2-[(2S)-2-(2-isopropoxyphenyl)pyrrolidin-1-yl]-7-azaspiro[3.5]nonan-7-yl}-N-{3-nitro-4-[(oxan-4-ylmethyl)amino]benzenesulfonyl}benzamide hydrochloride]", "values": [
      {"measurement": "pIC50", "setting": "Bcl-2; hydrochloride", "value": 9.64},
      {"measurement": "pIC50", "setting": "[1]; hydrochloride", "value": 7.30}
    ]},
    {"smiles": "Cc1ccccc1[C@@H]1CCCN1C1CC2(CCN(c3ccc(C(=O)NS(=O)(=O)c4ccc(NCC5CCOCC5)c([N+](=O)[O-])c4)c(N4C[C@H]5CCOC[C@@H]5Oc5nc6[nH]ccc6cc54)c3)CC2)C1", "note": "[Example 68, 2-[(3R,8R)-2,5-dioxa-10,16,18-triazatetracyclo[9.7.0.0^{3,8}.0^{13,17}]octadeca-1(11),12,14,17-tetraen-10-yl]-4-{2-[(2S)-2-(2-methylphenyl)pyrrolidin-1-yl]-7-azaspiro[3.5]nonan-7-yl}-N-{3-nitro-4-[(oxan-4-ylmethyl)amino]benzenesulfonyl}benzamide]", "values": [
      {"measurement": "pIC50", "setting": "Bcl-2", "value": 9.52},
      {"measurement": "pIC50", "setting": "[1]", "value": 7.39}
    ]}
  ]
}
